Holding throughout (assay type): physicochemical
The nature of series [1]: Hygroscopicity / moisture sorption isotherms. The conditions noted are these: for water content: ambient relative humidities (about 50% R.H.); for water content / immediate weight gain (moisture): hydrochloride; for immediate weight gain (moisture): upon initial exposure to approximately 5% R.H. How it is done:
Hygroscopicity measurements were made for F-I and F-III using the VTI method as follows. Each sample was dried under vacuum at 60° C. until no further weight loss was detected, at which time the sample chamber was brought to 0% relative humidity. Moisture sorption isotherms were obtained at 25° C. using a VTI vacuum moisture balance with the following conditions: sample size 10–15 mg, adsorption/desorption range 0–95% relative humidity, step interval 5%, sample interval 10 minutes.
Moisture Sorption Isotherms were generated using a VTI SGA-100 flow instrument. The samples were analyzed at 25° C. from 0–95% relative humidity (RH) for adsorption and from 95–5% RH for desorption in steps of 5% RH. The adsorption and desorption isotherms were generated as a graph of the % weight change vs. % RH.

The nature of series [2]: Aqueous solubility and dissolution rate of crystal forms.
Series [3] in a line: Physical stability of crystal forms (XRD at different relative humidities, variable temperature XRD). How it is done: XRD patterns were obtained on a […] powder diffractometer, equipped with a CuKα source (λ=1.54056 Å) and a Kevex solid-state detector, operating at 50 kV and 40 mA. Each sample was scanned between 4° and 35° in 2θ. Samples were allowed to equilibrate for at least 30 minutes at the desired temperature and/or relative humidity before data collection. Variable temperature X-ray powder diffraction patterns were obtained on a […] powder diffractometer which was equipped with a CuKα source (λ=1.54056 Å) operated at 50 kV and 40 mA with a scintillation detector and nickel filter. The powder was packed into a top-loading, recessed temperature controlled holder and a smooth surface was obtained for diffraction. The sample was scanned from 2 to 35° 2θ at 2.5 seconds per step size of 0.04° beginning at 25° C. after an equilibration time of 5 minutes. Subsequent scans were obtained at increasing temperature increments of 25° C. to a maximum of 125° C.

With `COc1ccc(-c2sc3cc(O)ccc3c2Oc2ccc(OCCN3CCCCC3)cc2)cc1.Cl` [F-I, 6-Hydroxy-3-(4-[2-(piperidin-1-yl)ethoxy]phenoxy)-2-(4-methoxyphenyl)benzo[b]thiophene hydrochloride], the water content entry in series [1] was “about 2.2%”. For the same molecule, in series [1] (25° C.), the “immediate weight gain (moisture)” value was 1.5%. Besides, the “aqueous solubilities and dissolution rates of the two forms (F-I vs F-III)” value in series [2] is reported as “comparable”. In series [3], the “physical stability over the entire relative humidity range” value is on record as “physically stable”.

For the molecule `COc1ccc(-c2sc3cc(O)ccc3c2Oc2ccc(OCCN3CCCCC3)cc2)cc1.Cl` [F-III, 6-Hydroxy-3-(4-[2-(piperidin-1-yl)ethoxy]phenoxy)-2-(4-methoxyphenyl)benzo[b]thiophene hydrochloride], the water content result in series [1] is “about 3.7%”. For the same molecule, in series [1] (25° C.), the “immediate weight gain (moisture)” value is reported as 1.7%. For the same molecule, the “aqueous solubilities and dissolution rates of the two forms (F-I vs F-III)” value in series [2] is reported as “comparable”. In addition, in series [3], the “physical stability over the entire relative humidity range” value is given as “physically stable”.

In the case of `COc1ccc(-c2sc3cc(O)ccc3c2Oc2ccc(OCCN3CCCCC3)cc2)cc1.Cl` [F-V, 6-Hydroxy-3-(4-[2-(piperidin-1-yl)ethoxy]phenoxy)-2-(4-methoxyphenyl)benzo[b]thiophene hydrochloride], the “weight increase in moisture sorption/desorption isotherm” value in series [1] (over the range of 0–95% RH, 25° C.) came out at 0.11%. Also, the “higher aqueous solubility relative to F-III” value in series [2] is roughly 10%. In series [3] (ambient storage conditions), the “thermodynamic stability among known forms of arzoxifene hydrochloride” value was “thermodynamically most stable known form”. In addition, in series [3] (up to 125° C.), the “change in diffraction pattern, variable temperature x-ray powder diffraction” value is “no significant change”.

(Values after patent US7122203B2, “Stabilized formulations of 6-hydroxy-3-(-4-[2-(piperidin-1-yl) ethoxy]phenoxy)-2-(4-methoxyphenyl) benzo[b]thiophene and salts thereof” (Eli Lilly and Company, priority 2000, dated 2006).)
